Measured values: publication PMC8235719, “New RAD51 Inhibitors to Target Homologous Recombination in Human Cells” (Genes, 2021)

What was measured:
[1] = test system: γ-H2A.X foci in U-2 OS IndDR-GFP cells; experiment: γ-H2A.X foci formation (immunofluorescence); format: cell-based, human; conditions: indicated concentrations, cisplatin-treated cells
Procedure: U-2 OS IndDR-GFP cells were seeded into 8-well polystyrene vessel culture slides at 5 × 10^4 cells/well. The next day, cells were pretreated with B02-iso or 0.1% DMSO (for control cells) for 1 h, followed by the treatment with 5 µM cisplatin for 4 h or left untreated (for control cells). After 4 h of incubation, cells were placed on ice, washed with PBS buffer (twice, 5 min each), pretreated with 0.5% Triton X-100 for 5 min, washed with PBS (twice, 5 min each). Cells were removed from ice and fixed with 4% methanol-free formaldehyde (Pierce; Waltham, […], USA) in PBS for 10 min. Cells were washed with PBS (twice, 5 min each), placed on ice, and permeabilized with 1% Triton X-100 in PBS for 10 min. Cells were removed from ice, washed with PBS (once, 5 min), blocked with a blocking buffer (5% BSA (Bovine Serum Albumin) in PBS) for 30 min, and incubated with rabbit polyclonal RAD51 antibody (1:1000, GeneTex, GTX100469) and mouse monoclonal anti-phospho-histone H2A.X (Ser 139) antibody (1:20,000, clone JBW301, Millipore 05-636) in blocking buffer, containing 0.3% Triton X-100 overnight at 4 °C. […] For foci quantification, 50 cells were chosen for each treatment condition at random, and foci number was counted using ImageJ software. […]

HsRAD51 = target: T1, HsRAD51 (Homo sapiens, UniProt Q06609); experiment: Surface plasmon resonance (SPR) binding to immobilized RAD51; conditions: 25 °C, equilibrium analysis, ± SD, read-out: KD, equilibrium dissociation constant of direct binding to hRAD51
T1 sequence (Q06609 1-339): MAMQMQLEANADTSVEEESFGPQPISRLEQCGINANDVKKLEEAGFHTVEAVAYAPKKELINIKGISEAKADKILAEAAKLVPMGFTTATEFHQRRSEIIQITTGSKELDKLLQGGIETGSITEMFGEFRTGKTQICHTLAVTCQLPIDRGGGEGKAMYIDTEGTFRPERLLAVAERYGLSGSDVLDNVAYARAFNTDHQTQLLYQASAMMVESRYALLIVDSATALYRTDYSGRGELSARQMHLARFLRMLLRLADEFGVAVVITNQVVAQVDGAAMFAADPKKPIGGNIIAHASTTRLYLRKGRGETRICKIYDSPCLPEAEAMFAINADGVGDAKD
Procedure: The binding of RAD51i to RAD51 was examined using a ProteOn XPR36 SPR Protein Interaction Array System (Bio-Rad, Hercules, CA, USA) at 25 °C. ProteOn GLH sensor chips were preconditioned with two 10 s pulses of 50 mM NaOH, 100 mM HCl, and 0.5% SDS followed by the system equilibration with the running buffer (20 mM sodium phosphate, 150 mM NaCl, and 0.005% Tween 20, pH 7.4). The surface of a GLH sensorchip was subsequently activated with a 1:100 dilution of a 1:1 mixture of 0.2 M EDC and 0.05 M Sulfo-NHS. Purified HsRAD51 was diluted to 500 µg/mL in 10 mM sodium acetate, pH 5.5, and injected immediately after chip activation across the ligand flow channels at 30 µL/min for 5 min. Unreacted protein was washed out, and the excess of unreacted ester groups on the sensor surface was capped by an injection of 1 M ethanolamine-HCl, pH 8.0, at 5 µL/min for 5 min. A reference surface to correct for nonspecific binding was similarly created by immobilizing an IgG b12 anti-HIV-1 gp120 antibody (IgG b12 anti-HIV-1 gp120; was obtained through the NIH AIDS Reagent Program, Division of AIDS, NIAID, NIH: Anti-HIV-1 gp120 Monoclonal (IgG1 b12) from Drs. Dennis Burton and Carlos Barbas). Serial dilutions of the compounds were prepared in the running buffer supplemented with 8% DMSO and injected at a flow rate of 100 μL/min for a 1 min association phase, followed by a 5 min dissociation phase using the “one-shot kinetics” functionality of the ProteOn instrument. Data were analyzed with ProteOn Manager Software version 3.0 (Bio-Rad; Hercules, CA, USA). The responses from the reference flow cell were subtracted to account for the non-specific binding and injection artifacts. Experiments were repeated at least three times. The equilibrium dissociation constants (KD) for the interactions were calculated in ProteOn Manager Version 3.1.0.6 (Bio-Rad; Hercules, CA, USA) using the equilibrium analysis function.

Kd (HsRAD51): 14.6 ± 6.2 µM
Compound: O=c1nc(/C=C/c2cccnc2)n(Cc2ccccc2)c2ccccc12 [B02-iso]
Level of γ-H2A.X foci [1]: did not reduce the level of γ-H2A.X foci
